Source: PubChem BioAssay AID1963977 (Molecular Pharmacology Branch, DTP, NCI, 2024)
“And” between values parts separate entries of the source, which are not always exact repeats. Equal entries are not always repeated.

Test system: 624824-186-R-J3-PDC multicell spheroids, viability
Experiment: Anticancer human tumor 624824-186-R-J3-PDC patient-derived colon adenocarcinoma cell line growth inhibition [PI3K]
Conditions: for viability, T/C: stronger effect = lower value; active = viability on the fitted dose curve at most 10% of control; inactive = the rest
Procedure, shortened: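 Viability of mixed-cell spheroids was determined after exposure to pairwise combinations, one partner being inavolisib, alpelisib, duvelisib or copanlisib. Highest tested concentration matched clinical Cmax where known and 10 microM where not, descending in half-log steps.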

[1] = curve of first compound, second compound 0.0316 µM
[2] = curve of first compound, second compound 0.1 µM
[3] = curve of first compound, second compound 0.316 µM
[4] = curve of first compound, second compound 1 µM
[5] = curve of first compound, second compound 3.16 µM
[6] = curve of first compound, second compound 10 µM
[7] = second compound 0.0316 µM, first compound 0.0316 µM
[8] = second compound 0.0316 µM, first compound 0.1 µM
[9] = second compound 0.0316 µM, first compound 0.316 µM
[10] = second compound 0.0316 µM, first compound 1 µM
[11] = second compound 0.0316 µM, first compound 3.16 µM
[12] = second compound 0.0316 µM, first compound 10 µM
[13] = second compound 0.1 µM, first compound 0.0316 µM
[14] = second compound 0.1 µM, first compound 0.1 µM
[15] = second compound 0.1 µM, first compound 0.316 µM
[16] = second compound 0.1 µM, first compound 1 µM
[17] = second compound 0.1 µM, first compound 3.16 µM
[18] = second compound 0.1 µM, first compound 10 µM
[19] = second compound 0.316 µM, first compound 0.0316 µM
[20] = second compound 0.316 µM, first compound 0.1 µM
[21] = second compound 0.316 µM, first compound 0.316 µM
[22] = second compound 0.316 µM, first compound 1 µM
[23] = second compound 0.316 µM, first compound 3.16 µM
[24] = second compound 0.316 µM, first compound 10 µM
[25] = second compound 1 µM, first compound 0.0316 µM
[26] = second compound 1 µM, first compound 0.1 µM
[27] = second compound 1 µM, first compound 0.316 µM
[28] = second compound 1 µM, first compound 1 µM
[29] = second compound 1 µM, first compound 3.16 µM
[30] = second compound 1 µM, first compound 10 µM
[31] = second compound 3.16 µM, first compound 0.0316 µM
[32] = second compound 3.16 µM, first compound 0.1 µM
[33] = second compound 3.16 µM, first compound 0.316 µM
[34] = second compound 3.16 µM, first compound 1 µM
[35] = second compound 3.16 µM, first compound 3.16 µM
[36] = second compound 3.16 µM, first compound 10 µM
[37] = second compound 10 µM, first compound 0.0316 µM
[38] = second compound 10 µM, first compound 0.1 µM
[39] = second compound 10 µM, first compound 0.316 µM
[40] = second compound 10 µM, first compound 1 µM
[41] = second compound 10 µM, first compound 3.16 µM
[42] = second compound 10 µM, first compound 10 µM
[43] = curve of first compound, second compound 0.00316 µM
[44] = curve of first compound, second compound 0.01 µM
[45] = second compound 0.00316 µM, first compound 0.0316 µM
[46] = second compound 0.00316 µM, first compound 0.1 µM
[47] = second compound 0.00316 µM, first compound 0.316 µM
[48] = second compound 0.00316 µM, first compound 1 µM
[49] = second compound 0.00316 µM, first compound 3.16 µM
[50] = second compound 0.00316 µM, first compound 10 µM
[51] = second compound 0.01 µM, first compound 0.0316 µM
[52] = second compound 0.01 µM, first compound 0.1 µM
[53] = second compound 0.01 µM, first compound 0.316 µM
[54] = second compound 0.01 µM, first compound 1 µM
[55] = second compound 0.01 µM, first compound 3.16 µM
[56] = second compound 0.01 µM, first compound 10 µM
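Note: spheroids exposed to agents for seven days before luminescence read.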
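Throughout, for viability, T/C: luminescent signal used as a stand-in for spheroid viability; percent viability relative to DMSO vehicle control wells taken as 100%.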

C=CC(=O)N1CCN(c2nc(=O)n(-c3c(C)ccnc3C(C)C)c3nc(-c4c(O)cccc4F)c(F)cc23)C(C)C1 (configuration not stated) + CC(Nc1ncnc2nc[nH]c12)c1cc2cccc(Cl)c2c(=O)n1-c1ccccc1
> 10 µM: IC50 [1] | IC50 [2] | IC50 [3] | IC50 [4] | IC50 [5] | IC50 [6]
inactive: viability, T/C [7] 125% | viability, T/C [8] 96.1% | viability, T/C [9] 114% | viability, T/C [10] 102% | viability, T/C [11] 113% | viability, T/C [12] 121% | viability, T/C [13] 105% | viability, T/C [14] 94.6% | viability, T/C [15] 121% | viability, T/C [16] 97.7% | viability, T/C [17] 107% | viability, T/C [18] 119% | viability, T/C [19] 96.9% | viability, T/C [20] 116% | viability, T/C [21] 100% | viability, T/C [22] 108% | viability, T/C [23] 111% | viability, T/C [24] 120% | viability, T/C [25] 106% | viability, T/C [26] 111% | viability, T/C [27] 109% | viability, T/C [28] 111% | viability, T/C [29] 127% | viability, T/C [30] 116% | viability, T/C [31] 104% | viability, T/C [32] 107% | viability, T/C [33] 97.9% | viability, T/C [34] 106% | viability, T/C [35] 102% | viability, T/C [36] 115% | viability, T/C [37] 95.3% | viability, T/C [38] 103% | viability, T/C [39] 95.5% | viability, T/C [40] 114% | viability, T/C [41] 99.6% | viability, T/C [42] 93.3%

CNC(=O)c1ccc(N2C(=S)N(c3ccc(C#N)c(C(F)(F)F)c3)C(=O)C2(C)C)cc1F + CC(Nc1ccc2c(c1)OCCn1cc(N3C(=O)OCC3C(F)F)nc1-2)C(N)=O
inactive: viability, T/C [45] 105% | viability, T/C [46] 104% | viability, T/C [47] 104% | viability, T/C [48] 87.4% | viability, T/C [49] 97% | viability, T/C [50] 106% | viability, T/C [51] 103% | viability, T/C [52] 101% | viability, T/C [53] 108% | viability, T/C [54] 97.1% | viability, T/C [55] 96.1% | viability, T/C [56] 99.1% | viability, T/C [7] 95.4% | viability, T/C [8] 104% | viability, T/C [9] 102% | viability, T/C [10] 97.3% | viability, T/C [11] 99.5% | viability, T/C [12] 99.6% | viability, T/C [13] 99.6% | viability, T/C [14] 101% | viability, T/C [15] 103% | viability, T/C [16] 101% | viability, T/C [17] 109% | viability, T/C [18] 80.3% | viability, T/C [19] 89.4% | viability, T/C [20] 90% | viability, T/C [21] 94.2% | viability, T/C [22] 97.8% | viability, T/C [23] 92% | viability, T/C [24] 82% | viability, T/C [25] 90.6% | viability, T/C [26] 89.2% | viability, T/C [27] 95.8% | viability, T/C [28] 90.5% | viability, T/C [29] 88.9% | viability, T/C [30] 76.4%
> 10 µM: IC50 [43] | IC50 [44] | IC50 [1] | IC50 [2] | IC50 [3] | IC50 [4]

Cn1ncc(Cl)c1-c1cc(C(=O)NC(CN)Cc2cccc(F)c2)sc1Cl (configuration not stated) + COc1c(OCCCN2CCOCC2)ccc2c3n(c(=NC(=O)c4cnc(N)nc4)nc12)CCN3
9.34 µM: IC50 [43]
2.59 µM: IC50 [2]
0.455 µM: IC50 [3]
> 10 µM: IC50 [44]
inactive: viability, T/C [45] 106% | viability, T/C [46] 96.6% | viability, T/C [47] 92% | viability, T/C [48] 74.8% | viability, T/C [49] 68.5% | viability, T/C [50] 47.2% | viability, T/C [51] 97.6% | viability, T/C [52] 99.3% | viability, T/C [53] 95% | viability, T/C [54] 71.1% | viability, T/C [55] 57.3% | viability, T/C [56] 48.6% | viability, T/C [7] 94.2% | viability, T/C [8] 96.4% | viability, T/C [9] 83.6% | viability, T/C [10] 82.5% | viability, T/C [11] 52.8% | viability, T/C [12] 37.2% | viability, T/C [13] 78.8% | viability, T/C [14] 80.5% | viability, T/C [15] 75.4% | viability, T/C [16] 60.9% | viability, T/C [17] 48.8% | viability, T/C [18] 33% | viability, T/C [19] 54.2% | viability, T/C [20] 54.5% | viability, T/C [21] 51.5% | viability, T/C [22] 46% | viability, T/C [23] 39.9% | viability, T/C [24] 25.9% | viability, T/C [25] 32.4% | viability, T/C [26] 26.8% | viability, T/C [27] 27.8% | viability, T/C [28] 32.2% | viability, T/C [29] 29.7% | viability, T/C [30] 21.7%
4.16 µM: IC50 [1]
< 0.0316 µM: IC50 [4]

C=CC(=O)N1CCN(c2nc(=O)n(-c3c(C)ccnc3C(C)C)c3nc(-c4c(O)cccc4F)c(F)cc23)C(C)C1 (configuration not stated)
inactive: viability, T/C (compound 0.0316 µM) 103% [middle of 4 runs] | viability, T/C (compound 0.1 µM) 94.8% [middle of 4 runs] | viability, T/C (compound 0.316 µM) 103% [middle of 4 runs] | viability, T/C (compound 1 µM) 94.3% [middle of 4 runs] | viability, T/C (compound 3.16 µM) 104% [middle of 4 runs] | viability, T/C (compound 10 µM) 106% and 108% (3×)
> 10 µM: IC50 (curve of compound)

C#Cc1c(F)ccc2cc(O)cc(-c3ncc4c(N5CC6CCC(C5)N6)nc(OCC56CCCN5CC(F)C6)nc4c3F)c12 (configuration not stated) + CC(Nc1ncnc2nc[nH]c12)c1cc2cccc(Cl)c2c(=O)n1-c1ccccc1
inactive: viability, T/C [7] 115% | viability, T/C [8] 93.2% | viability, T/C [9] 104% | viability, T/C [10] 101% | viability, T/C [11] 97% | viability, T/C [12] 117% | viability, T/C [13] 106% | viability, T/C [14] 99.2% | viability, T/C [15] 117% | viability, T/C [16] 113% | viability, T/C [17] 105% | viability, T/C [18] 115% | viability, T/C [19] 88.4% | viability, T/C [20] 103% | viability, T/C [21] 109% | viability, T/C [22] 102% | viability, T/C [23] 114% | viability, T/C [24] 115% | viability, T/C [25] 102% | viability, T/C [26] 110% | viability, T/C [27] 108% | viability, T/C [28] 103% | viability, T/C [29] 111% | viability, T/C [30] 112% | viability, T/C [31] 96% | viability, T/C [32] 105% | viability, T/C [33] 105% | viability, T/C [34] 95.3% | viability, T/C [35] 100% | viability, T/C [36] 110% | viability, T/C [37] 96.3% | viability, T/C [38] 97% | viability, T/C [39] 94.5% | viability, T/C [40] 92.8% | viability, T/C [41] 98.3% | viability, T/C [42] 85.7%
> 10 µM: IC50 [1] | IC50 [2] | IC50 [3] | IC50 [4] | IC50 [5] | IC50 [6]

CNC(=O)c1ccc(N2C(=S)N(c3ccc(C#N)c(C(F)(F)F)c3)C(=O)C2(C)C)cc1F + COc1c(OCCCN2CCOCC2)ccc2c3n(c(=NC(=O)c4cnc(N)nc4)nc12)CCN3
< 0.0316 µM: IC50 [3] | IC50 [4]
inactive: viability, T/C [45] 116% | viability, T/C [46] 92.3% | viability, T/C [47] 114% | viability, T/C [48] 103% | viability, T/C [49] 105% | viability, T/C [50] 107% | viability, T/C [51] 102% | viability, T/C [52] 94.5% | viability, T/C [53] 101% | viability, T/C [54] 94% | viability, T/C [55] 104% | viability, T/C [56] 98% | viability, T/C [7] 91.1% | viability, T/C [8] 102% | viability, T/C [9] 91.2% | viability, T/C [10] 93.2% | viability, T/C [11] 88.9% | viability, T/C [12] 88.8% | viability, T/C [13] 78% | viability, T/C [14] 74.5% | viability, T/C [15] 89.4% | viability, T/C [16] 71.8% | viability, T/C [17] 73% | viability, T/C [18] 72.5% | viability, T/C [19] 49.2% | viability, T/C [20] 50.8% | viability, T/C [21] 47.5% | viability, T/C [22] 48.5% | viability, T/C [23] 47.6% | viability, T/C [24] 34.1% | viability, T/C [25] 26.7% | viability, T/C [26] 31% | viability, T/C [27] 26.7% | viability, T/C [28] 27.5% | viability, T/C [29] 26.2% | viability, T/C [30] 23.9%
> 10 µM: IC50 [43] | IC50 [44] | IC50 [1] | IC50 [2]
